From ChEMBL document CHEMBL3621049, “Imidazole derivatives show anticancer potential by inducing apoptosis and cellular senescence” (2014)
The source made the active and inactive calls.

Assays:
Type in all cases: functional, cell-based
RPMI-8226 = experiment: Growth inhibition of human RPMI8226 cells at 10 uM by sulforhodamine B assay
BT-549 = experiment: Growth inhibition of human BT549 cells at 10 uM by sulforhodamine B assay
DU-145 = experiment: Growth inhibition of human DU145 cells at 10 uM by sulforhodamine B assay
Malme-3M = experiment: Growth inhibition of human MALME-3M cells at 10 uM by sulforhodamine B assay
NCI-H23 = experiment: Growth inhibition of human NCI-H23 cells at 10 uM by sulforhodamine B assay
LOX IMVI = experiment: Growth inhibition of human LOXIMVI cells at 10 uM by sulforhodamine B assay
MOLT-4 = experiment: Growth inhibition of human MOLT4 cells at 10 uM by sulforhodamine B assay
NCI-H322M = experiment: Growth inhibition of human NCI-H322M cells at 10 uM by sulforhodamine B assay
UO-31 = experiment: Growth inhibition of human UO31 cells at 10 uM by sulforhodamine B assay
HCT-116 = experiment: Growth inhibition of human HCT116 cells at 10 uM by sulforhodamine B assay
CCRF-CEM = experiment: Growth inhibition of human CCRF-CEM cells at 10 uM by sulforhodamine B assay
HOP-92 = experiment: Growth inhibition of human HOP92 cells at 10 uM by sulforhodamine B assay
SK-OV-3 = experiment: Growth inhibition of human SKOV3 cells at 10 uM by sulforhodamine B assay
MCF7 = experiment: Growth inhibition of human MCF7 cells at 10 uM by sulforhodamine B assay
UACC-62 = experiment: Growth inhibition of human UACC62 cells at 10 uM by sulforhodamine B assay
NCI/ADR-RES = experiment: Growth inhibition of human NCI/ADR-RES cells at 10 uM by sulforhodamine B assay
NCI-H460 = experiment: Growth inhibition of human NCI-H460 cells at 10 uM by sulforhodamine B assay
SW-620 = experiment: Growth inhibition of human SW620 cells at 10 uM by sulforhodamine B assay
MDA-MB-435 = experiment: Growth inhibition of human MDA-MB-435 cells at 10 uM by sulforhodamine B assay
OVCAR-3 = experiment: Growth inhibition of human OVCAR3 cells at 10 uM by sulforhodamine B assay
HCC 2998 = experiment: Growth inhibition of human HCC2998 cells at 10 uM by sulforhodamine B assay
RXF 393 = experiment: Growth inhibition of human RXF393 cells at 10 uM by sulforhodamine B assay
OVCAR-8 = experiment: Growth inhibition of human OVCAR8 cells at 10 uM by sulforhodamine B assay
SNB-19 = experiment: Growth inhibition of human SNB19 cells at 10 uM by sulforhodamine B assay
MDA-MB-231 = experiment: Growth inhibition of human MDA-MB-231 cells at 10 uM by sulforhodamine B assay
OVCAR-4 = experiment: Growth inhibition of human OVCAR4 cells at 10 uM by sulforhodamine B assay
ACHN = experiment: Growth inhibition of human ACHN cells at 10 uM by sulforhodamine B assay
HT-29 = experiment: Growth inhibition of human HT-29 cells at 10 uM by sulforhodamine B assay
HOP-62 = experiment: Growth inhibition of human HOP62 cells at 10 uM by sulforhodamine B assay
K562 = experiment: Growth inhibition of human K562 cells at 10 uM by sulforhodamine B assay
SR = experiment: Growth inhibition of human SR cells at 10 uM by sulforhodamine B assay
SK-MEL-2 = experiment: Growth inhibition of human SK-MEL-2 cells at 10 uM by sulforhodamine B assay
A498 = experiment: Growth inhibition of human A498 cells at 10 uM by sulforhodamine B assay
CAKI-1 = experiment: Growth inhibition of human Caki1 cells at 10 uM by sulforhodamine B assay
MDA-MB-468 = experiment: Growth inhibition of human MDA-MB-468 cells at 10 uM by sulforhodamine B assay
OVCAR-5 = experiment: Growth inhibition of human OVCAR5 cells at 10 uM by sulforhodamine B assay
A549 = experiment: Growth inhibition of human A549/ATCC cells at 10 uM by sulforhodamine B assay
TK-10 = experiment: Growth inhibition of human TK10 cells at 10 uM by sulforhodamine B assay
NCI-H226 = experiment: Growth inhibition of human NCI-H226 cells at 10 uM by sulforhodamine B assay
SF-295 = experiment: Growth inhibition of human SF295 cells at 10 uM by sulforhodamine B assay
KM12 = experiment: Growth inhibition of human KM12 cells at 10 uM by sulforhodamine B assay
SNB-75 = experiment: Growth inhibition of human SNB75 cells at 10 uM by sulforhodamine B assay
SK-MEL-28 = experiment: Growth inhibition of human SK-MEL-28 cells at 10 uM by sulforhodamine B assay
SN12C = experiment: Growth inhibition of human SN12C cells at 10 uM by sulforhodamine B assay
HL-60(TB) = experiment: Growth inhibition of human HL-60(TB) cells at 10 uM by sulforhodamine B assay
U-251 = experiment: Growth inhibition of human U251 cells at 10 uM by sulforhodamine B assay
786-0 = experiment: Growth inhibition of human 786-0 cells at 10 uM by sulforhodamine B assay
M14 = experiment: Growth inhibition of human M14 cells at 10 uM by sulforhodamine B assay
COLO 205 = experiment: Growth inhibition of human COLO205 cells at 10 uM by sulforhodamine B assay
SF-539 = experiment: Growth inhibition of human SF539 cells at 10 uM by sulforhodamine B assay
HCT-15 = experiment: Growth inhibition of human HCT15 cells at 10 uM by sulforhodamine B assay
UACC-257 = experiment: Growth inhibition of human UACC257 cells at 10 uM by sulforhodamine B assay
SF-268 = experiment: Growth inhibition of human SF268 cells at 10 uM by sulforhodamine B assay
NCI-H522 = experiment: Growth inhibition of human NCI-H522 cells at 10 uM by sulforhodamine B assay
SK-MEL-5 = experiment: Growth inhibition of human SK-MEL-5 cells at 10 uM by sulforhodamine B assay
PC-3 = experiment: Growth inhibition of human PC3 cells at 10 uM by sulforhodamine B assay
Hs-578T = experiment: Growth inhibition of human Hs 578T cells at 10 uM by sulforhodamine B assay
IGROV-1 = experiment: Growth inhibition of human IGROV1 cells at 10 uM by sulforhodamine B assay
T47D = experiment: Growth inhibition of human T47D cells at 10 uM by sulforhodamine B assay

Measured: growth inhibition (GI)

C#CCn1c(-c2ccc(OC3CCCC3)c(OC)c2)nc(-c2ccccc2)c1-c1ccccc1
active: RPMI-8226 | BT-549 | DU-145 | Malme-3M | NCI-H23 | LOX IMVI | MOLT-4 | NCI-H322M | UO-31 | HCT-116 | CCRF-CEM | HOP-92 | SK-OV-3 | MCF7 | UACC-62 | NCI/ADR-RES | NCI-H460 | SW-620 | MDA-MB-435 | OVCAR-3 | HCC 2998 | RXF 393 | OVCAR-8 | SNB-19 | MDA-MB-231 | OVCAR-4 | ACHN | HT-29 | HOP-62 | K562 | SR | SK-MEL-2 | A498 | CAKI-1 | MDA-MB-468 | OVCAR-5 | A549 | TK-10 | NCI-H226 | SF-295 | KM12 | SNB-75 | SK-MEL-28 | SN12C | HL-60(TB) | U-251 | 786-0 | M14 | COLO 205 | SF-539 | HCT-15 | UACC-257 | SF-268 | NCI-H522 | SK-MEL-5 | PC-3 | Hs-578T | IGROV-1 | T47D

COc1ccc(-c2nc(-c3ccccc3)c(-c3ccccc3)n2C2CC2)cc1OC1CCCCC1
active: RPMI-8226 | BT-549 | DU-145 | Malme-3M | NCI-H23 | LOX IMVI | MOLT-4 | NCI-H322M | UO-31 | HCT-116 | CCRF-CEM | HOP-92 | SK-OV-3 | MCF7 | UACC-62 | NCI/ADR-RES | NCI-H460 | SW-620 | MDA-MB-435 | OVCAR-3 | HCC 2998 | RXF 393 | OVCAR-8 | SNB-19 | MDA-MB-231 | OVCAR-4 | ACHN | HT-29 | HOP-62 | K562 | SR | SK-MEL-2 | A498 | CAKI-1 | MDA-MB-468 | OVCAR-5 | A549 | TK-10 | NCI-H226 | SF-295 | KM12 | SNB-75 | SK-MEL-28 | SN12C | HL-60(TB) | U-251 | 786-0 | M14 | COLO 205 | SF-539 | HCT-15 | UACC-257 | SF-268 | NCI-H522 | SK-MEL-5 | PC-3 | Hs-578T | IGROV-1 | T47D
